Source: ChEMBL document CHEMBL1909046, “DrugMatrix in vitro pharmacology data”

target: T1, Thromboxane-A synthase (Homo sapiens, UniProt P24557); test: biochemical; assay type: tissue-based, Platelet; conditions: platelet;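 note: enzyme inhibition assay with PGH2 supplied as substrate; in other assays of this panel Not Active means under 50% inhibition at 10 µM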
T1 sequence (P24557 whole entry): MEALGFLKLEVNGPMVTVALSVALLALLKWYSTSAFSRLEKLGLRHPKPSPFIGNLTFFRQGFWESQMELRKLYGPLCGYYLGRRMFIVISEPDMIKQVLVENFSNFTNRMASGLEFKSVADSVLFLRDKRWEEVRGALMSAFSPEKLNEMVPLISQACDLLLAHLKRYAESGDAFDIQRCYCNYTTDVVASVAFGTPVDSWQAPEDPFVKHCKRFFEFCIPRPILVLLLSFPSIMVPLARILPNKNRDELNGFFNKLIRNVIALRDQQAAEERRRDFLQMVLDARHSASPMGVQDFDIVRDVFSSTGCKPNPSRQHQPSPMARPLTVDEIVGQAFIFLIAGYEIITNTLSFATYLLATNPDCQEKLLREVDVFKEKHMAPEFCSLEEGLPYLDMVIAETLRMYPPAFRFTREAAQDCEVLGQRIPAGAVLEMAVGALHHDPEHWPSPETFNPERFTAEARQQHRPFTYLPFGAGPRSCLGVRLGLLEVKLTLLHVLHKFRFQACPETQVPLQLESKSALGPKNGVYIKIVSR

| Structure (SMILES) | IC50 |
| --- | --- |
| Nn1nnc2ccccc21 | Not Active |
| CC[C@]1(O)CC[C@H]2[C@@H]3CCC4=CCCC[C@@H]4[C@H]3CC[C@@]21C | Not Active |
| N[C@@H](Cc1ccc(F)cc1)C(=O)O | Not Active |
| O=C(c1ccccc1Cl)N1CCC(Cc2ccccc2)CC1 | Not Active |
| C[C@@H]1CC[C@H]2[C@@H](C)C(=O)O[C@@H]3O[C@@]4(C)CC[C@@H]1[C@]32OO4 [ARTEMISININ] | Not Active |
| CCc1oc2ccccc2c1C(=O)c1cc(Br)c(O)c(Br)c1 [BENZBROMARONE] | Not Active |
| CCC[C@@H]1C[C@@H](C(=O)N[C@@H]([C@H]2O[C@H](SC)[C@H](O)[C@@H](O)[C@H]2O)[C@H](C)Cl)N(C)C1 [CLINDAMYCIN] | Not Active |
| C#C[C@]1(O)CC[C@H]2[C@@H]3CCC4=Cc5oncc5C[C@]4(C)[C@H]3CC[C@@]21C [DANAZOL] | Not Active |
| CN1C(=O)CN=C(c2ccccc2)c2cc(Cl)ccc21 [DIAZEPAM] | Not Active |

system: not listed separately; test: DRUGMATRIX: Leukotriene, BLT (LTB4) radioligand binding (ligand: [3H]LTB4); assay type: cell membranes, Membrane; conditions: u-937; Not Active = under 50% inhibition at 10 µM

| Structure (SMILES) | IC50 | Ki |
| --- | --- | --- |
| Nn1nnc2ccccc21 | Not Active | Not Active |
| CC[C@]1(O)CC[C@H]2[C@@H]3CCC4=CCCC[C@@H]4[C@H]3CC[C@@]21C | Not Active | Not Active |
| N[C@@H](Cc1ccc(F)cc1)C(=O)O | Not Active | Not Active |
| O=C(c1ccccc1Cl)N1CCC(Cc2ccccc2)CC1 | Not Active | Not Active |
| C[C@@H]1CC[C@H]2[C@@H](C)C(=O)O[C@@H]3O[C@@]4(C)CC[C@@H]1[C@]32OO4 [ARTEMISININ] | Not Active | Not Active |
| CCc1oc2ccccc2c1C(=O)c1cc(Br)c(O)c(Br)c1 [BENZBROMARONE] | Not Active | Not Active |
| CCC[C@@H]1C[C@@H](C(=O)N[C@@H]([C@H]2O[C@H](SC)[C@H](O)[C@@H](O)[C@H]2O)[C@H](C)Cl)N(C)C1 [CLINDAMYCIN] | Not Active | Not Active |
| C#C[C@]1(O)CC[C@H]2[C@@H]3CCC4=Cc5oncc5C[C@]4(C)[C@H]3CC[C@@]21C [DANAZOL] | Not Active | Not Active |
| CN1C(=O)CN=C(c2ccccc2)c2cc(Cl)ccc21 [DIAZEPAM] | Not Active | Not Active |

target: T2, Leukotriene C4 synthase (Cavia porcellus, UniProt A6XA80); test: not given; assay type: tissue-based, Lung; conditions: not given;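 note: enzyme inhibition assay of leukotriene C4 synthase, using LTA4 as the substrate; in other assays of this panel Not Active means under 50% inhibition at 10 µM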
T2 sequence (A6XA80 whole entry): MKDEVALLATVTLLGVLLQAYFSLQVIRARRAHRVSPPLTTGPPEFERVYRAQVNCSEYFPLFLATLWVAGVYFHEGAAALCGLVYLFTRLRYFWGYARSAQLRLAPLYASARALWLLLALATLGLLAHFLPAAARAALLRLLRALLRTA

| Structure (SMILES) | IC50 |
| --- | --- |
| Nn1nnc2ccccc21 | Not Active |
| CC[C@]1(O)CC[C@H]2[C@@H]3CCC4=CCCC[C@@H]4[C@H]3CC[C@@]21C | Not Active |
| N[C@@H](Cc1ccc(F)cc1)C(=O)O | Not Active |
| O=C(c1ccccc1Cl)N1CCC(Cc2ccccc2)CC1 | Not Active |
| C[C@@H]1CC[C@H]2[C@@H](C)C(=O)O[C@@H]3O[C@@]4(C)CC[C@@H]1[C@]32OO4 [ARTEMISININ] | Not Active |
| CCc1oc2ccccc2c1C(=O)c1cc(Br)c(O)c(Br)c1 [BENZBROMARONE] | Not Active |
| CCC[C@@H]1C[C@@H](C(=O)N[C@@H]([C@H]2O[C@H](SC)[C@H](O)[C@@H](O)[C@H]2O)[C@H](C)Cl)N(C)C1 [CLINDAMYCIN] | Not Active |
| C#C[C@]1(O)CC[C@H]2[C@@H]3CCC4=Cc5oncc5C[C@]4(C)[C@H]3CC[C@@]21C [DANAZOL] | Not Active |
| CN1C(=O)CN=C(c2ccccc2)c2cc(Cl)ccc21 [DIAZEPAM] | Not Active |

target: T3, Muscarinic acetylcholine receptor M4 (Homo sapiens, UniProt P08173); test: not given; assay type: cell membranes, CHO-K1, Membrane; conditions: cho-k1; note: in other assays of this panel Not Active means under 50% inhibition at 10 µM
T3 sequence (P08173 whole entry): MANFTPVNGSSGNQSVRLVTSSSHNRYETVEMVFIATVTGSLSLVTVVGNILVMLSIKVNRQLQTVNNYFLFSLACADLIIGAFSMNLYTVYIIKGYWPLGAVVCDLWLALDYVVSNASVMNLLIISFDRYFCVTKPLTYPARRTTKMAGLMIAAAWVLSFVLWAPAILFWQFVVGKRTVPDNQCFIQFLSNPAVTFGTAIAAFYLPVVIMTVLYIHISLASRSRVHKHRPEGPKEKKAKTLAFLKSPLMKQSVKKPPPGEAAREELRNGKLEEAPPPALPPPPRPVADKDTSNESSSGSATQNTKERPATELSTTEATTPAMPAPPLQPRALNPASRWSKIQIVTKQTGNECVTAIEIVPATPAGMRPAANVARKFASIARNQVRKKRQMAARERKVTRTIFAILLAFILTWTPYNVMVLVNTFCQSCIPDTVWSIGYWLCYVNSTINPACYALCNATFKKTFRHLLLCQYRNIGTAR

| Structure (SMILES) | IC50 |
| --- | --- |
| Nn1nnc2ccccc21 | Not Active |
| CC[C@]1(O)CC[C@H]2[C@@H]3CCC4=CCCC[C@@H]4[C@H]3CC[C@@]21C | Not Active |
| N[C@@H](Cc1ccc(F)cc1)C(=O)O | Not Active |
| O=C(c1ccccc1Cl)N1CCC(Cc2ccccc2)CC1 | Not Active |
| C[C@@H]1CC[C@H]2[C@@H](C)C(=O)O[C@@H]3O[C@@]4(C)CC[C@@H]1[C@]32OO4 [ARTEMISININ] | Not Active |
| CCc1oc2ccccc2c1C(=O)c1cc(Br)c(O)c(Br)c1 [BENZBROMARONE] | Not Active |
| CCC[C@@H]1C[C@@H](C(=O)N[C@@H]([C@H]2O[C@H](SC)[C@H](O)[C@@H](O)[C@H]2O)[C@H](C)Cl)N(C)C1 [CLINDAMYCIN] | Not Active |
| C#C[C@]1(O)CC[C@H]2[C@@H]3CCC4=Cc5oncc5C[C@]4(C)[C@H]3CC[C@@]21C [DANAZOL] | Not Active |
| CN1C(=O)CN=C(c2ccccc2)c2cc(Cl)ccc21 [DIAZEPAM] | Not Active |

target: Delta-type opioid receptor (Homo sapiens, UniProt P41143); test: not given; assay type: cell membranes, HEK293, Membrane; conditions: hek293; note: in other assays of this panel Not Active means under 50% inhibition at 10 µM
Sequence (P41143 whole entry): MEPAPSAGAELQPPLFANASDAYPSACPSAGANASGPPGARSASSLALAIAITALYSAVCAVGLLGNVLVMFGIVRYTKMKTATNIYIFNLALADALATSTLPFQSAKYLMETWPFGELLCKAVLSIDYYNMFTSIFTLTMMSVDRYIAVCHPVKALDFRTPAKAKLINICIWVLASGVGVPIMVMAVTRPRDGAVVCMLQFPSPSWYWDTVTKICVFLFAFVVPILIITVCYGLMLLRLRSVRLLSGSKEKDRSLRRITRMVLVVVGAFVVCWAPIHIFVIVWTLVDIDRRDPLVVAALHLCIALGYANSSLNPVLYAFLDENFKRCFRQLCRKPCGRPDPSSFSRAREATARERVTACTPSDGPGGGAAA

| Structure (SMILES) | IC50 |
| --- | --- |
| Nn1nnc2ccccc21 | Not Active |
| CC[C@]1(O)CC[C@H]2[C@@H]3CCC4=CCCC[C@@H]4[C@H]3CC[C@@]21C | Not Active |
| N[C@@H](Cc1ccc(F)cc1)C(=O)O | Not Active |
| O=C(c1ccccc1Cl)N1CCC(Cc2ccccc2)CC1 | Not Active |
| C[C@@H]1CC[C@H]2[C@@H](C)C(=O)O[C@@H]3O[C@@]4(C)CC[C@@H]1[C@]32OO4 [ARTEMISININ] | Not Active |
| CCc1oc2ccccc2c1C(=O)c1cc(Br)c(O)c(Br)c1 [BENZBROMARONE] | Not Active |
| CCC[C@@H]1C[C@@H](C(=O)N[C@@H]([C@H]2O[C@H](SC)[C@H](O)[C@@H](O)[C@H]2O)[C@H](C)Cl)N(C)C1 [CLINDAMYCIN] | Not Active |
| C#C[C@]1(O)CC[C@H]2[C@@H]3CCC4=Cc5oncc5C[C@]4(C)[C@H]3CC[C@@]21C [DANAZOL] | Not Active |
| CN1C(=O)CN=C(c2ccccc2)c2cc(Cl)ccc21 [DIAZEPAM] | Not Active |

target: Mitogen-activated protein kinase 14 (Homo sapiens, UniProt Q16539); test: not given; set-up: species or system Escherichia coli; conditions: not given
Sequence (Q16539 whole entry): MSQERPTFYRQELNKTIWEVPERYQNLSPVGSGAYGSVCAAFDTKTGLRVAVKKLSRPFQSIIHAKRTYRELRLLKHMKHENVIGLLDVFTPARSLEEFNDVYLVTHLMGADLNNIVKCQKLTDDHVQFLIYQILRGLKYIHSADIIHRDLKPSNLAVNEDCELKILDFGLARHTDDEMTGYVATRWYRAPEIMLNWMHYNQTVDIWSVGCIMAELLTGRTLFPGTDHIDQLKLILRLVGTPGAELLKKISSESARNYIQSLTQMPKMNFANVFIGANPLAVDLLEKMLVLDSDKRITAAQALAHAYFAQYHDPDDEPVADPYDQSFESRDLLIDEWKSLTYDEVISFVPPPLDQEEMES

| Structure (SMILES) | IC50 |
| --- | --- |
| Nn1nnc2ccccc21 | Not Active |
| CC[C@]1(O)CC[C@H]2[C@@H]3CCC4=CCCC[C@@H]4[C@H]3CC[C@@]21C | Not Active |
| N[C@@H](Cc1ccc(F)cc1)C(=O)O | Not Active |
| C[C@@H]1CC[C@H]2[C@@H](C)C(=O)O[C@@H]3O[C@@]4(C)CC[C@@H]1[C@]32OO4 [ARTEMISININ] | Not Active |
| CCC[C@@H]1C[C@@H](C(=O)N[C@@H]([C@H]2O[C@H](SC)[C@H](O)[C@@H](O)[C@H]2O)[C@H](C)Cl)N(C)C1 [CLINDAMYCIN] | Not Active |
| C#C[C@]1(O)CC[C@H]2[C@@H]3CCC4=Cc5oncc5C[C@]4(C)[C@H]3CC[C@@]21C [DANAZOL] | Not Active |
| CN1C(=O)CN=C(c2ccccc2)c2cc(Cl)ccc21 [DIAZEPAM] | Not Active |

same assay, conditions: read-out: IC50

| Structure (SMILES) | IC50 |
| --- | --- |
| O=C(c1ccccc1Cl)N1CCC(Cc2ccccc2)CC1 | 0.833 µM |
| CCc1oc2ccccc2c1C(=O)c1cc(Br)c(O)c(Br)c1 [BENZBROMARONE] | 1.24 µM |

target: Epidermal growth factor receptor (Homo sapiens, UniProt P00533); test: DRUGMATRIX: Protein Tyrosine Kinase, EGF Receptor enzyme inhibition (substrate: Poly(Glu:Tyr)); assay type: cell-based, Insect cells; conditions: insect cells; Not Active = under 50% inhibition at 10 µM
Sequence (P00533 whole entry): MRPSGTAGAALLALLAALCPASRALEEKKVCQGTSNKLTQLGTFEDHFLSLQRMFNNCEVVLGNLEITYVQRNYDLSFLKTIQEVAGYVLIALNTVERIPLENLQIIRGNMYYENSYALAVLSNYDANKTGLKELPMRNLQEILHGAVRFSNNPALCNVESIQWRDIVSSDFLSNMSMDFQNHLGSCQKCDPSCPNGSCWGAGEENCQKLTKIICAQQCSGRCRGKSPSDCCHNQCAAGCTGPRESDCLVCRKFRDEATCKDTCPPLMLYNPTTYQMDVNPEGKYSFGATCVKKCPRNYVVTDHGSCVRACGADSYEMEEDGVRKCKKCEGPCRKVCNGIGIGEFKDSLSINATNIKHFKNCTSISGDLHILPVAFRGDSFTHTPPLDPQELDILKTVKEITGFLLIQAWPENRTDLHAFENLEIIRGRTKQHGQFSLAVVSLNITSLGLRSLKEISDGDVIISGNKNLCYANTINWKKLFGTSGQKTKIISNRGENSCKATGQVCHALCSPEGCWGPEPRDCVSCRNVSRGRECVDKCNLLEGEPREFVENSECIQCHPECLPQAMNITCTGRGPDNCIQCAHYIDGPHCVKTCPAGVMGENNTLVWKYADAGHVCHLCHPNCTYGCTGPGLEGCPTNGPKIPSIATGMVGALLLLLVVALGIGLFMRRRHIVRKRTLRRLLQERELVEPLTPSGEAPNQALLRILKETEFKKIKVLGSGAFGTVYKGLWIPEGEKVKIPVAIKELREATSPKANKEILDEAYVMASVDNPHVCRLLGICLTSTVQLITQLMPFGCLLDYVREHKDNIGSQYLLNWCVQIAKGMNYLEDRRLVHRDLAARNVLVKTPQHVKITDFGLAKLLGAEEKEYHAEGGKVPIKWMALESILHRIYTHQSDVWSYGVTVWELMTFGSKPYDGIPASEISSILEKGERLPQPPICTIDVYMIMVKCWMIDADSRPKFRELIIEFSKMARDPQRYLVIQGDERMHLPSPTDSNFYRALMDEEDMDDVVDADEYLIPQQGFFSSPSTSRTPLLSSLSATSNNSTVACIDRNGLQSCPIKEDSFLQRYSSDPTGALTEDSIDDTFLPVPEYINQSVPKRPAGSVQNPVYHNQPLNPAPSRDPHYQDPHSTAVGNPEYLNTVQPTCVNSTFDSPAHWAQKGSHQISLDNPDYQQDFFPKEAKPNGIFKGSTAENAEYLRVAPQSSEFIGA

| Structure (SMILES) | IC50 |
| --- | --- |
| Nn1nnc2ccccc21 | Not Active |
| CC[C@]1(O)CC[C@H]2[C@@H]3CCC4=CCCC[C@@H]4[C@H]3CC[C@@]21C | Not Active |
| N[C@@H](Cc1ccc(F)cc1)C(=O)O | Not Active |
| O=C(c1ccccc1Cl)N1CCC(Cc2ccccc2)CC1 | Not Active |
| C[C@@H]1CC[C@H]2[C@@H](C)C(=O)O[C@@H]3O[C@@]4(C)CC[C@@H]1[C@]32OO4 [ARTEMISININ] | Not Active |
| CCc1oc2ccccc2c1C(=O)c1cc(Br)c(O)c(Br)c1 [BENZBROMARONE] | Not Active |
| CCC[C@@H]1C[C@@H](C(=O)N[C@@H]([C@H]2O[C@H](SC)[C@H](O)[C@@H](O)[C@H]2O)[C@H](C)Cl)N(C)C1 [CLINDAMYCIN] | Not Active |
| C#C[C@]1(O)CC[C@H]2[C@@H]3CCC4=Cc5oncc5C[C@]4(C)[C@H]3CC[C@@]21C [DANAZOL] | Not Active |
| CN1C(=O)CN=C(c2ccccc2)c2cc(Cl)ccc21 [DIAZEPAM] | Not Active |

target: Cytochrome P450 2C9 (Homo sapiens, UniProt P11712); test: not given; conditions: bti-tn-5b1-4; note: in other assays of this panel Not Active means under 50% inhibition at 10 µM
Sequence (P11712 whole entry): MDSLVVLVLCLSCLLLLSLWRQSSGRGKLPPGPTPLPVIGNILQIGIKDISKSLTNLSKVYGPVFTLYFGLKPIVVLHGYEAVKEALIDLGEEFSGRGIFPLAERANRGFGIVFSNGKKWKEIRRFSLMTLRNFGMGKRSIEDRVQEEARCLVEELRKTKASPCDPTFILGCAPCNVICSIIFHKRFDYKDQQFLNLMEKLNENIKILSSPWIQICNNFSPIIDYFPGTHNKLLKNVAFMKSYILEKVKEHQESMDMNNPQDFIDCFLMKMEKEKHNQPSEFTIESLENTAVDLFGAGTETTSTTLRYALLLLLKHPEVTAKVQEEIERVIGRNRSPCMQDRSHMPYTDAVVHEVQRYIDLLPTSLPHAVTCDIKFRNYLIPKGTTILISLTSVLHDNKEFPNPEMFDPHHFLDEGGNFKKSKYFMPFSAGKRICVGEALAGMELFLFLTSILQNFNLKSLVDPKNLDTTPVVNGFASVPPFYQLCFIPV

| Structure (SMILES) | IC50 | Ki |
| --- | --- | --- |
| Nn1nnc2ccccc21 | Not Active | Not Active |
| CC[C@]1(O)CC[C@H]2[C@@H]3CCC4=CCCC[C@@H]4[C@H]3CC[C@@]21C | Not Active | Not Active |
